A short description of data set [1]: In vivo pharmacokinetic study in rats. Further details: species or system Sprague Dawley rats.
Another data set in a line: MTT cytotoxicity assay. The data set is classed as cell-based, human. The conditions noted are these: human, Caco-2 cells.
The test system of data set [2] is Caco-2 cells. Put plainly: MTT cytotoxicity assay. Format: cell-based, human. The settings on record: 10–200 μg/mL.
The next data set deals with Caco-2 cell homogenates. Put plainly: Degradation in Caco-2 cell homogenates. The data set is classed as in vitro ADME, human. The settings on record: 37°C, within 120 minutes.
For data set [3], the system named is Caco-2 cells. Put plainly: Uptake into Caco-2 cell monolayers. The data set is classed as in vitro ADME, human.
Data set [4] in a line: Bidirectional transport across Caco-2 cell monolayers. The data set is classed as in vitro ADME. The settings on record: human. On the technique in general: Caco-2 cells form a polarised layer with tight junctions and transporters.
For a further data set, the system named is Caco-2 cell monolayers. Put plainly: TEER of Caco-2 cell monolayers. Format: cell-based, human. The conditions noted are these: Caco-2 monolayers; HM formulations 40 μg/mL, TMC 0.1% w/w.
For data set [5] the following is noted: mice, 60 mg/kg, within 1 hour.
Setting [6] is: Sprague Dawley, rat, plasma, po, 60 mg/kg.

Broadly, the AUC is the area under the concentration-time curve, a measure of exposure. Read a low AUC as less exposure. One may read the Cmax as the maximum level reached in the sampled fluid or tissue. Broadly, the viability is a read-out of living cells in per cent, often relative to untreated cells. Low values mean more harm to the cells, high ones less harm to the cells. The term Papp denotes a coefficient for how fast a substance crosses the barrier. Low readings indicate slow passage, high ones fast passage.

Each structure is given as a SMILES string.

`COc1ccc2c(c1)[nH]c1c(C)nccc12` [HM, Harmine] returned an AUC in data set [1] (Sprague Dawley, rat, plasma, iv, 20 mg/kg) of 12900 ± 1250 ng·h/mL. In data set [1] (setting [6]), this compound registered an AUC of 9760 ± 2340 ng·h/mL and a Cmax of 3110 ± 320 ng/mL. In data set [1] (rats, IG 60 mg/kg versus HM IV 20 mg/kg), the “BA (oral bioavailability)” value was determined as 25.25±6.05%. In the data set “MTT cytotoxicity assay”, this compound came in with a viability at 24 h, 200 μg/mL of over 90%. In the data set on Caco-2 cells [2], the “Toxicity to Caco-2 cells” value is “almost no toxicity”. Moreover, in the data set on Caco-2 cell homogenates, the HM degraded result is recorded as “more than 60%”. For the same compound, in the data set on Caco-2 cells [3], the “Effect of endocytosis inhibitor CPZ on uptake” value was “did not affect”, the “Effect of energy inhibitor NaN3 on uptake” value is listed as “did not affect” and the “Effect of p-gp inhibitor CyA on uptake” value is “did not affect”. Also, in data set [4], the apparent permeability (Papp) at 2 h was over 1 ×10⁻⁶ cm/s and the Papp at 2 h, 40 μg/mL came to 5.11 ± 0.69 ×10⁻⁶ cm/s. Moreover, the “Reduction of TEER” value with Caco-2 cell monolayers is “lower than 15%”. In data set [5], the “Decrease of retention amount in the stomach” value was “about 10%”.

These data come from publication PMC4725628 (International Journal of Nanomedicine, 2016).
